Measured values taken from publication PMC5218480 (PLoS ONE, 2017).

Test system: MV-4-11 cells
Experiment: Gene expression microarray analysis (Affymetrix PrimeView) and GSEA
Format: cell-based, human
Set-up: RFU PODN (11730768_x_at) / Fold change /veh PODN (11730768_x_at) / RFU LINC00158 (11744669_a_at) / Fold change /veh LINC00158 (11744669_a_at) / RFU DUSP10 (11751237_a_at) / Fold change /veh DUSP10 (11751237_a_at) / RFU ID3 (11757404_x_at) / Fold change /veh ID3 (11757404_x_at) / RFU PLEKHG5 (11737974_s_at) / Fold change /veh PLEKHG5 (11737974_s_at) / RFU LRRC4B (11730491_at) / Fold change /veh LRRC4B (11730491_at) / RFU GIMAP4 (11747438_a_at) / Fold change /veh GIMAP4 (11747438_a_at) / RFU KRT8 (11758183_x_at) / Fold change /veh KRT8 (11758183_x_at) / RFU CNN1 (11734310_a_at) / Fold change /veh CNN1 (11734310_a_at) / RFU VPS37D (11726825_at) / Fold change /veh VPS37D (11726825_at) / RFU C10orf10 (11716522_x_at) / Fold change /veh C10orf10 (11716522_x_at) / RFU KIR2DL2 /// KIR2DL4 /// KIR2DL5A /// KIR2DL5B /// KIR2DS1 /// KIR2DS2 /// KIR2DS3 /// KIR2DS4 /// KIR3DL3 /// KIR3DL3 /// KIR3DS1 (11738374_at) / Fold change /veh KIR2DL2 /// KIR2DL4 /// KIR2DL5A /// KIR2DL5B /// KIR2DS1 /// KIR2DS2 /// KIR2DS3 /// KIR2DS4 /// KIR3DL3 /// KIR3DL3 /// KIR3DS1 (11738374_at) / RFU C1QL1 (11718748_at) / Fold change /veh C1QL1 (11718748_at) / RFU TMPRSS4 (11747572_a_at) / Fold change /veh TMPRSS4 (11747572_a_at) / RFU HAMP (11756126_x_at) / Fold change /veh HAMP (11756126_x_at) / RFU RNFT2 (11725882_a_at) / Fold change /veh RNFT2 (11725882_a_at) / RFU NR4A2 (11747474_a_at) / Fold change /veh NR4A2 (11747474_a_at) / RFU ABCC12 (11746883_a_at) / Fold change /veh ABCC12 (11746883_a_at) / RFU TMEM136 (11760407_x_at) / Fold change /veh TMEM136 (11760407_x_at) / RFU CLDN22 /// WWC2 (11732394_at) / Fold change /veh CLDN22 /// WWC2 (11732394_at) / RFU HLA-DPB1 (11760878_x_at) / Fold change /veh HLA-DPB1 (11760878_x_at) / RFU SPINT1 (11716480_a_at) / Fold change /veh SPINT1 (11716480_a_at) / RFU GAP43 (11754022_s_at) / Fold change /veh GAP43 (11754022_s_at) / RFU A4GNT (11735810_at) / Fold change /veh A4GNT (11735810_at) / RFU PRB3 (11715151_x_at) / Fold change /veh PRB3 (11715151_x_at) / RFU TUBB4B (11761932_at) / Fold change /veh TUBB4B (11761932_at) / RFU CAPN14 (11732068_a_at) / Fold change /veh CAPN14 (11732068_a_at) / RFU TMCC2 (11721928_a_at) / Fold change /veh TMCC2 (11721928_a_at) / RFU IRGQ (11745062_a_at) / Fold change /veh IRGQ (11745062_a_at) / RFU FAM174B (11720279_a_at) / Fold change /veh FAM174B (11720279_a_at) / RFU TMPRSS4 (11748680_a_at) / Fold change /veh TMPRSS4 (11748680_a_at) / RFU FAM212B (11763350_a_at) / Fold change /veh FAM212B (11763350_a_at) / RFU PLEKHG5 (11743358_a_at) / Fold change /veh PLEKHG5 (11743358_a_at) / RFU ZSCAN30 (11745921_a_at) / Fold change /veh ZSCAN30 (11745921_a_at) / RFU CMKLR1 (11741424_a_at) / Fold change /veh CMKLR1 (11741424_a_at) / RFU LOC101060620 /// MAPK8IP1 (11723275_at) / Fold change /veh LOC101060620 /// MAPK8IP1 (11723275_at) / RFU SPTSSB (11747773_x_at) / Fold change /veh SPTSSB (11747773_x_at) / RFU PRSS12 (11739890_at) / Fold change /veh PRSS12 (11739890_at) / RFU BIN1 (11741810_x_at) / Fold change /veh BIN1 (11741810_x_at) / RFU WNT11 (11732464_a_at) / Fold change /veh WNT11 (11732464_a_at) / RFU C10orf10 (11716521_a_at) / Fold change /veh C10orf10 (11716521_a_at) / RFU C5orf56 (11738089_at) / Fold change /veh C5orf56 (11738089_at) / RFU CYB561 (11721691_x_at) / Fold change /veh CYB561 (11721691_x_at) / RFU ANKRD19P (11752326_a_at) / Fold change /veh ANKRD19P (11752326_a_at) / RFU OR2T12 /// OR2T33 /// OR2T8 (11738714_s_at) / Fold change /veh OR2T12 /// OR2T33 /// OR2T8 (11738714_s_at) / RFU VCAN (11748164_a_at) / Fold change /veh VCAN (11748164_a_at) / RFU JSRP1 (11732532_at) / Fold change /veh JSRP1 (11732532_at) / RFU KRTAP10-11 (11738290_x_at) / Fold change /veh KRTAP10-11 (11738290_x_at) / RFU MYO3A (11730013_a_at) / Fold change /veh MYO3A (11730013_a_at) / RFU EBF3 (11725865_a_at) / Fold change /veh EBF3 (11725865_a_at) / RFU CAMK2N1 (11719241_x_at) / Fold change /veh CAMK2N1 (11719241_x_at) / RFU C5orf56 (11738088_a_at) / Fold change /veh C5orf56 (11738088_a_at) / RFU OLFML3 (11715873_a_at) / Fold change /veh OLFML3 (11715873_a_at) / RFU LOC100653217 /// NTM (11731650_a_at) / Fold change /veh LOC100653217 /// NTM (11731650_a_at) / RFU MAPK11 (11762145_a_at) / Fold change /veh MAPK11 (11762145_a_at) / RFU FIZ1 (11724087_x_at) / Fold change /veh FIZ1 (11724087_x_at) / RFU OASL (11726364_x_at) / Fold change /veh OASL (11726364_x_at) / RFU SOX15 (11748057_x_at) / Fold change /veh SOX15 (11748057_x_at) / RFU CD79A (11719716_a_at) / Fold change /veh CD79A (11719716_a_at) / RFU HIST1H1D (11736915_at) / Fold change /veh HIST1H1D (11736915_at) / RFU CASKIN2 (11723855_a_at) / Fold change /veh CASKIN2 (11723855_a_at) / RFU LOC730098 (11760151_x_at) / Fold change /veh LOC730098 (11760151_x_at) / RFU OR4N2 (11742367_at) / Fold change /veh OR4N2 (11742367_at) / RFU PRRT2 (11749266_a_at) / Fold change /veh PRRT2 (11749266_a_at) / RFU SNX32 (11753110_a_at) / Fold change /veh SNX32 (11753110_a_at) / RFU CDHR5 (11726645_a_at) / Fold change /veh CDHR5 (11726645_a_at) / RFU RCAN1 (11760418_a_at) / Fold change /veh RCAN1 (11760418_a_at) / RFU FAM167A (11723789_a_at) / Fold change /veh FAM167A (11723789_a_at) / RFU FAM26E (11764081_at) / Fold change /veh FAM26E (11764081_at) / RFU ISYNA1 (11749810_s_at) / Fold change /veh ISYNA1 (11749810_s_at) / RFU ACY1 (11761880_at) / Fold change /veh ACY1 (11761880_at) / RFU 11764098_at / Fold change /veh 11764098_at / RFU SAMD14 (11745864_x_at) / Fold change /veh SAMD14 (11745864_x_at) / RFU NPB (11741838_a_at) / Fold change /veh NPB (11741838_a_at) / RFU TMPRSS6 (11731388_a_at) / Fold change /veh TMPRSS6 (11731388_a_at) / RFU KRTAP10-2 (11738614_at) / Fold change /veh KRTAP10-2 (11738614_at) / RFU ARHGAP8 /// PRR5-ARHGAP8 (11727945_x_at) / Fold change /veh ARHGAP8 /// PRR5-ARHGAP8 (11727945_x_at) / RFU KRTAP5-7 /// NADSYN1 (11734609_at) / Fold change /veh KRTAP5-7 /// NADSYN1 (11734609_at) / RFU RASL12 (11751679_a_at) / Fold change /veh RASL12 (11751679_a_at) / RFU CDKN2B (11736163_a_at) / Fold change /veh CDKN2B (11736163_a_at) / RFU PRF1 (11729649_at) / Fold change /veh PRF1 (11729649_at) / RFU, ZNF638 /// ZNF638-IT1 / Fold change vs veh, ZNF638 /// ZNF638-IT1 / RFU, PANK3 / Fold change vs veh, PANK3 / RFU, SH3YL1 / Fold change vs veh, SH3YL1 / RFU, ZEB2 / Fold change vs veh, ZEB2 / RFU, NRIP1 / Fold change vs veh, NRIP1 / RFU, PTTG1IP / Fold change vs veh, PTTG1IP / RFU, CAPN2 / Fold change vs veh, CAPN2 / RFU, MED14 / Fold change vs veh, MED14 / RFU, SNORA58 / Fold change vs veh, SNORA58 / RFU, C1orf63 / Fold change vs veh, C1orf63 / RFU, LRRFIP1 / Fold change vs veh, LRRFIP1 / RFU, NDUFAF7 / Fold change vs veh, NDUFAF7 / RFU, SLC12A2 / Fold change vs veh, SLC12A2 / RFU, IBTK / Fold change vs veh, IBTK / RFU, ESF1 / Fold change vs veh, ESF1 / Fold change vs veh, TMEM50B / RFU, TAOK1 / Fold change vs veh, TAOK1 / RFU, ACBD3 / Fold change vs veh, ACBD3 / RFU, TMA16 / Fold change vs veh, TMA16 / RFU, RWDD3 / Fold change vs veh, RWDD3 / RFU, BCAT1 / Fold change vs veh, BCAT1 / RFU, EDEM3 / Fold change vs veh, EDEM3 / RFU, TMEM33 / Fold change vs veh, TMEM33 / RFU, WDR75 / Fold change vs veh, WDR75 / RFU, AHCTF1 / Fold change vs veh, AHCTF1 / RFU, TFRC / Fold change vs veh, TFRC / RFU, ZDHHC17 / Fold change vs veh, ZDHHC17 / RFU, NOM1 / Fold change vs veh, NOM1 / RFU, ARL8B / Fold change vs veh, ARL8B / RFU, ZBTB11 / Fold change vs veh, ZBTB11 / RFU, TAMM41 / Fold change vs veh, TAMM41 / RFU, KIAA1704 /// LOC100996395 / Fold change vs veh, KIAA1704 /// LOC100996395 / RFU, ING1 / Fold change vs veh, ING1 / RFU, TRMT61B / Fold change vs veh, TRMT61B / RFU, FUBP3 / Fold change vs veh, FUBP3 / RFU, TP53 / Fold change vs veh, TP53 / RFU, TNKS2 / Fold change vs veh, TNKS2 / RFU, ZFP14 / Fold change vs veh, ZFP14 / RFU, ACTR2 / Fold change vs veh, ACTR2 / RFU, PPP3R1 / Fold change vs veh, PPP3R1 / RFU, PIK3R1 / Fold change vs veh, PIK3R1 / RFU, HNRNPA1 / Fold change vs veh, HNRNPA1 / RFU, RNF170 / Fold change vs veh, RNF170 / RFU, ZNF28 / Fold change vs veh, ZNF28 / RFU, RNGTT / Fold change vs veh, RNGTT / RFU, OGT / Fold change vs veh, OGT / RFU, BRD1 / Fold change vs veh, BRD1 / RFU, MARS / Fold change vs veh, MARS / RFU, ZNF655 / Fold change vs veh, ZNF655 / RFU, FAHD1 / Fold change vs veh, FAHD1 / RFU, BDP1 / Fold change vs veh, BDP1 / RFU, LRRCC1 / Fold change vs veh, LRRCC1 / RFU, ARID1A / Fold change vs veh, ARID1A / RFU, ZNF146 / Fold change vs veh, ZNF146 / RFU, ZNF330 / Fold change vs veh, ZNF330 / RFU, GPN3 / Fold change vs veh, GPN3 / RFU, C9orf123 / Fold change vs veh, C9orf123 / RFU, N4BP2L2 / Fold change vs veh, N4BP2L2 / RFU, ARFIP1 / Fold change vs veh, ARFIP1 / RFU, FAM179B / Fold change vs veh, FAM179B / RFU, BCL10 / Fold change vs veh, BCL10 / RFU, UHRF1BP1L / Fold change vs veh, UHRF1BP1L / RFU, BET1 / Fold change vs veh, BET1 / RFU, CNOT2 / Fold change vs veh, CNOT2 / RFU, ZNF268 / Fold change vs veh, ZNF268 / Fold change vs veh, ZNF507 / RFU, DGCR2 / Fold change vs veh, DGCR2 / RFU, WDSUB1 / Fold change vs veh, WDSUB1 / Fold change vs veh, HSP90B1 /// MIR3652 / RFU, ADSS / Fold change vs veh, ADSS / RFU, GK / Fold change vs veh, GK / RFU, ZNF148 / Fold change vs veh, ZNF148 / RFU, TAF9 / Fold change vs veh, TAF9 / RFU, SLC1A5 / Fold change vs veh, SLC1A5 / RFU, SLMO2 / Fold change vs veh, SLMO2 / RFU, ABCC4 / Fold change vs veh, ABCC4 / RFU, LOC101060439 /// RAP1B / Fold change vs veh, LOC101060439 /// RAP1B / RFU, RFX7 / Fold change vs veh, RFX7 / RFU, GTPBP10 / Fold change vs veh, GTPBP10 / RFU, CNEP1R1 / Fold change vs veh, CNEP1R1 / RFU, BIVM-ERCC5 /// ERCC5 / Fold change vs veh, BIVM-ERCC5 /// ERCC5 / RFU, ILF3 / Fold change vs veh, ILF3 / RFU 11762660_at / Fold change /veh 11762660_at / RFU VCAN (11757783_s_at) / Fold change /veh VCAN (11757783_s_at) / RFU DDX43 (11728927_at) / Fold change /veh DDX43 (11728927_at) / RFU KRT8 (11758188_x_at) / Fold change /veh KRT8 (11758188_x_at) / RFU NKD1 (11759106_at) / Fold change /veh NKD1 (11759106_at) / RFU SRD5A1 (11742802_a_at) / Fold change /veh SRD5A1 (11742802_a_at) / RFU TPSAB1 /// TPSB2 (11721975_s_at) / Fold change /veh TPSAB1 /// TPSB2 (11721975_s_at) / RFU GSTM3 (11746129_a_at) / Fold change /veh GSTM3 (11746129_a_at) / RFU IL23R (11737362_x_at) / Fold change /veh IL23R (11737362_x_at) / RFU TMEM51 (11727254_a_at) / Fold change /veh TMEM51 (11727254_a_at) / RFU PIWIL2 (11732686_x_at) / Fold change /veh PIWIL2 (11732686_x_at) / RFU ORM1 (11744905_x_at) / Fold change /veh ORM1 (11744905_x_at) / RFU CCDC152 (11743942_at) / Fold change /veh CCDC152 (11743942_at) / RFU ECM1 (11717891_a_at) / Fold change /veh ECM1 (11717891_a_at) / RFU IL23R (11748794_a_at) / Fold change /veh IL23R (11748794_a_at) / RFU TNFAIP8L3 (11732012_x_at) / Fold change /veh TNFAIP8L3 (11732012_x_at) / RFU MBOAT4 (11741988_at) / Fold change /veh MBOAT4 (11741988_at) / RFU 11764193_at / Fold change /veh 11764193_at / RFU TMEM53 (11763286_at) / Fold change /veh TMEM53 (11763286_at) / RFU MAGEB2 (11727129_at) / Fold change /veh MAGEB2 (11727129_at) / RFU TMEM200A (11744735_a_at) / Fold change /veh TMEM200A (11744735_a_at) / RFU CCDC152 (11751479_a_at) / Fold change /veh CCDC152 (11751479_a_at) / RFU FAM211A (11726209_a_at) / Fold change /veh FAM211A (11726209_a_at) / RFU RGS16 (11746705_a_at) / Fold change /veh RGS16 (11746705_a_at) / RFU VCAN (11755009_s_at) / Fold change /veh VCAN (11755009_s_at) / RFU RHOB (11743442_s_at) / Fold change /veh RHOB (11743442_s_at) / RFU RGS16 (11720943_a_at) / Fold change /veh RGS16 (11720943_a_at) / RFU RGS16 (11720944_at) / Fold change /veh RGS16 (11720944_at) / RFU, VPS4B / Fold change vs veh, VPS4B / RFU, CREB1 / Fold change vs veh, CREB1 / RFU, DNAJC13 / Fold change vs veh, DNAJC13 / RFU, GNAQ / Fold change vs veh, GNAQ / RFU, CDK5R1 / Fold change vs veh, CDK5R1 / RFU, ZRANB3 / Fold change vs veh, ZRANB3 / RFU, CUL4A / Fold change vs veh, CUL4A / RFU, CCNY / Fold change vs veh, CCNY / RFU, UFL1 / Fold change vs veh, UFL1 / RFU, COG3 / Fold change vs veh, COG3 / RFU, DIAPH2 / Fold change vs veh, DIAPH2 / RFU, SKA2 / Fold change vs veh, SKA2 / RFU, AFF3 / Fold change vs veh, AFF3 / RFU, LMF1 / Fold change vs veh, LMF1 / RFU, IPO11 / Fold change vs veh, IPO11 / RFU, DFFB / Fold change vs veh, DFFB / RFU, FOXP1 / Fold change vs veh, FOXP1 / RFU, CARD8 / Fold change vs veh, CARD8 / RFU, STRN3 / Fold change vs veh, STRN3 / RFU, ADK / Fold change vs veh, ADK / RFU, RASSF2 / Fold change vs veh, RASSF2 / RFU, WIPF1 / Fold change vs veh, WIPF1 / RFU, LARP1B / Fold change vs veh, LARP1B / RFU, RASA1 / Fold change vs veh, RASA1 / RFU, RB1 / Fold change vs veh, RB1 / RFU, PPFIA1 / Fold change vs veh, PPFIA1 / RFU, MAT2A / Fold change vs veh, MAT2A / RFU, CCT5 / Fold change vs veh, CCT5 / RFU, WDR92 / Fold change vs veh, WDR92 / RFU, CUX1 / Fold change vs veh, CUX1 / RFU, TTC7A / Fold change vs veh, TTC7A / RFU, TMEM135 / Fold change vs veh, TMEM135 / RFU, DEPTOR / Fold change vs veh, DEPTOR / RFU, CPM / Fold change vs veh, CPM / RFU, DNAJB6 / Fold change vs veh, DNAJB6 / RFU, CACNA2D3 / Fold change vs veh, CACNA2D3 / RFU, DTX4 / Fold change vs veh, DTX4 / RFU, TFCP2 / Fold change vs veh, TFCP2 / RFU, GMCL1 /// GMCL1P1 / Fold change vs veh, GMCL1 /// GMCL1P1 / RFU, AEBP2 / Fold change vs veh, AEBP2 / RFU, SNHG1 /// SNORD22 /// SNORD25 /// SNORD26 /// SNORD27 /// SNORD28 /// SNORD29 /// SNORD31 / Fold change vs veh, SNHG1 /// SNORD22 /// SNORD25 /// SNORD26 /// SNORD27 /// SNORD28 /// SNORD29 /// SNORD31 / Fold change (Aza/veh), C12orf56 (ProbeSet 11735607_a_at) / Fold change (ACY-1035/veh), C12orf56 (ProbeSet 11735607_a_at) / Fold change (Aza/veh), FGFR1OP (ProbeSet 11751329_s_at) / Fold change (ACY-1035/veh), FGFR1OP (ProbeSet 11751329_s_at) / Fold change (Aza/veh), VPS36 (ProbeSet 11739960_a_at) / Fold change (ACY-1035/veh), VPS36 (ProbeSet 11739960_a_at) / RFU SYPL1 (11715823_x_at) / Fold change /veh SYPL1 (11715823_x_at) / RFU IGFBP7 (11715501_s_at) / Fold change /veh IGFBP7 (11715501_s_at) / RFU REEP3 (11722064_at) / Fold change /veh REEP3 (11722064_at) / RFU IGLL1 (11728026_x_at) / Fold change /veh IGLL1 (11728026_x_at): dose or concentration left out as unconfirmed
Conditions: MV-4-11 cells, 48 hours

Nc1ccc(-c2cccs2)cc1NC(=O)c1ccc2c(c1)cc(C1CC1)n2CCN1CCOCC1 [ACY-1035]
Fold change /veh OASL (11726364_x_at): 1.03
